Reference: US20060094786A1, “Treating syndrome X with substituted tetralins and indanes” (priority 2002, published 2006)

Experiments:
PPARγ = biological target: T1, PPARγ (Homo sapiens, UniProt P37231); assay: aP2 Assay for PPAR Gamma Agonists (bDNA aP2 mRNA, preadipocytes); assay type: cell-based; settings: bracketed values
T1 construct: Following the challenge of the preadipocytes, cells may be lysed with lysis buffer; endogenous in cells; host or cells: preadipocytes
T1 sequence (P37231 1-505): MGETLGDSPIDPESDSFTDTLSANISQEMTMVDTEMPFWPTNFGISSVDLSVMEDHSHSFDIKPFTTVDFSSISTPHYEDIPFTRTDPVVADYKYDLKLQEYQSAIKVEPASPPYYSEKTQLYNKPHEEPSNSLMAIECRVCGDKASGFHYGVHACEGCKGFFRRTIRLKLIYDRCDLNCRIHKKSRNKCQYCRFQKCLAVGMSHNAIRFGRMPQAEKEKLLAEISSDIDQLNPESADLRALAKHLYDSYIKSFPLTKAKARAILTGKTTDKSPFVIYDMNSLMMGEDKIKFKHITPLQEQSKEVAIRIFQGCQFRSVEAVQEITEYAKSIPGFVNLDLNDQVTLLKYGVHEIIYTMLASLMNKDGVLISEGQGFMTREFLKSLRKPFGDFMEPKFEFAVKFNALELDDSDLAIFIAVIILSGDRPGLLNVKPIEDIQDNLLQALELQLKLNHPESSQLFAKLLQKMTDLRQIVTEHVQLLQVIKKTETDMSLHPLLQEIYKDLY
Text: aP2 Assay for PPAR Gamma Agonists
The procedure is described in detail in Burris et al., Molecular Endocrinology 1999, 13:410, which is hereby incorporated by reference in its entirety, and aP2 assay results of agonist intrinsic activity may be presented as fold increase over vehicle in induction of aP2 mRNA production.
Twenty-four hours after the initial seeding of the 96-well plates by hand (around 20,000/well), the differentiation assay may be initiated. Medium may be removed and replaced with 150 μl of differentiation medium containing vehicle (DMSO) or test compounds. Cells may be returned to incubator for 24 hours culture. At the termination of the challenge, medium may be removed and 100 ul of lysis buffer may be added to initiate the bDNA aP2 mRNA assay. The branched DNA assay may be performed according to the manufacturer's protocol (Bayer Diagnostics; Emeryville, Calif.). Result may be expressed as the fold increase of aP2 mRNA production activated over vehicle controls. EC50's and Emax may be determined by non-linear regression with a sigmoidal fit curve.
Following the challenge of the preadipocytes, cells may be lysed with lysis buffer (Bayer Diagnostics) containing the aP2 oligonucleotides. After a 15 minute incubation at 53° C. or 30 minutes at 37° C. incubator, 70 ul of the lysis buffer from each well may be added to a corresponding capture well (preincubated with 70 ul of blocking buffer (Bayer Diagnostics)). The capture plate may be incubated overnight at 53° C. in a plate incubator (Bayer Diagnostics). After this incubation, the bDNA and labeled probes may be annealed as directed by the manufacturer. Following a 30-minute incubation with the luminescent alkaline phosphatase substrate, dioxitane, the luminescence may be quantitated in a Dynex MLX microtiter plate luminometer. Oligonucleotide probes designed to anneal to the aP2 mRNA and function in the bDNA mRNA detection system are designed with ProbeDesigner software (Bayer Diagnostics). This software package analyzes a target sequence of interest with a series of algorithms in order to determine which regions of the sequence can perform as locations for capture, label, or spacer probe annealing. The sequences of the oligonucleotides are as follows: […]

PPARα = biological target: T2, PPARα (Rattus norvegicus, UniProt P37230); assay: HD bDNA Assay (HD gene induction, H4IIE rat hepatoma cell line); assay type: cell-based; settings: assay not named, values equal the PPARα column
T2 construct: H4IIE rat hepatoma cell line was obtained from ATCC; host or cells: H4IIE rat hepatoma cells
T2 sequence (P37230 1-468): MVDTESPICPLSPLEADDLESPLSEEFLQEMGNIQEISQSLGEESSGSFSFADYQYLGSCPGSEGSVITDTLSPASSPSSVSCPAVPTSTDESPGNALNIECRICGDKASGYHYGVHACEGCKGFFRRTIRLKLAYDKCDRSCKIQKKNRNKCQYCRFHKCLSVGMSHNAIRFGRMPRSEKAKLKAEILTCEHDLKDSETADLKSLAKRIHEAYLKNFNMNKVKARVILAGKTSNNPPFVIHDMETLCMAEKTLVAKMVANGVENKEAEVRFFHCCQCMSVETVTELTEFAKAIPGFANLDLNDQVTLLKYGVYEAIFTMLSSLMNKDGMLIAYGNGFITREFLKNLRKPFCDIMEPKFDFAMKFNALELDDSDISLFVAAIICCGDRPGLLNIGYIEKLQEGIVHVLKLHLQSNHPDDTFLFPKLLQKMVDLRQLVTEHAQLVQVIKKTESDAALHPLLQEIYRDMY
Method: H4IIE rat hepatoma cell line was obtained from ATCC. Cells were cultured in 175 cm^2 tissue culture flask or seeded in 96-well plate with (high serum content, 10% fetal bovine serum and 10% calf serum) culture medium and maintained at 37° C. and 5% CO2 throughout study. Twenty-four hours after the initial seeding of the 96-well plate by hand (approximate 100,000/well), the HD gene induction assay was initiated. Media was removed and replaced with 100 ul of low serum culture media (5% charcoal/dextran treated calf serum) containing vehicle (DMSO) or test compounds or standard. Cells returned to incubator for 24 hours culture. At the termination of the challenge, 50 ul lysis buffer with HD gene specific CE, LE, BL probes was added directly into each well to initiate the is bDNA HD mRNA assay. The branched DNA assay was performed according to the manufacturer's protocol (Bayer Diagnostics; Emeryville. Calif.). At the end of the assay, the luminescence was quantitated in Dynex MLX microtiter plate luminometer. EC50's were determined by non-linear regression with a sigmoidal fit utilizing Graphpad Prism.

PPARδ = biological target: T3, PPARδ (Homo sapiens, UniProt Q03181); assay: Transfection Assay for PPARδ Receptors (PPAR-Gal4 receptor / Gal4-Luciferase Reporter, HEK293 cells); assay type: cell-based; settings: bracketed values
T3 sequence (Q03181 171-441 limits assumed): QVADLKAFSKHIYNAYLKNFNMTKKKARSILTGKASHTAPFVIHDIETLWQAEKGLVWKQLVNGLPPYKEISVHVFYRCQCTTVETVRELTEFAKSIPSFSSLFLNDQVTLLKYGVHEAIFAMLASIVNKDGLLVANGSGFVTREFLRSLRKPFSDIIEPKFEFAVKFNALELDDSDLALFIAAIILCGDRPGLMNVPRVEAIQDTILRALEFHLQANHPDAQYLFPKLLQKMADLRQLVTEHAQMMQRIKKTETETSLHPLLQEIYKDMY
Method: Transfection Assay for PPARδ Receptors
HEK293 cells were grown in DMEM/F-12 Media supplemented with 10% FBS and glutamine (GIBCOBRL). The cells were co-transfected with DNA for PPAR-Gal4 receptor and Gal4-Luciferase Reporter using the DMRIE-C Reagent. On the following day, the DNA-containing medium were replaced with 5% Charcoal treated FBS growth medium. After six hours, cells were seeded in 96 well plate and incubated at 37° C. in CO2 incubator overnight. Cells were challenged by test compounds and incubated for 24 hours at 37° C. in 5% CO2 incubator. Luciferase activity was assayed using the Steady-Glo Luciferase Assay Kit from Promega. DMRIE-C Reagent was purchased from GIBCO Cat. No. 10459-014. OPTI-MEM I Reduced Serum Medium was purchased from GIBCO Cat. No. 31985. Steady-Glo Luciferase Assay Kit was obtained from Promega Part# E254B.

[1] = Comparison of activity of (R) and (S) isomer (test not stated); settings: chiral center on C-2 of the indane ring
Text: Unless otherwise mentioned or indicated, the chemical designation of compounds denotes the mixture of all possible stereochemically isomeric forms, said mixtures containing all diastereomers and enantiomers of the basic molecular structure. More in particular, stereogenic centers may have the (R)- or (S)-configuration; substituents on bivalent cyclic saturated radicals may have either the cis- or trans-configuration. The invention encompasses stereochemically isomeric forms including diastereoisomers, as well as mixtures thereof in any proportion of the disclosed compounds. The disclosed compounds may also exist in their tautomeric forms. Such forms although not explicitly indicated in the above and following formulae are intended to be included within the scope of the present invention. For example, in compound 2.1 or Example 3, there is a chiral center on the C-2 of the indane ring.

EC50 (PPARγ): > 10 µM
EC50 (PPARα): 0.008 µM
EC50 (PPARδ): > 10 µM
Structure (SMILES): CCN(C(=O)Nc1ccc(OC(F)(F)F)cc1)[C@@H]1Cc2ccc(SC(C)(C)C(=O)O)cc2C1 [Example 3, (R)-2-{2-[1-Ethyl-3-(4-trifluoromethoxyphenyl)ureido]indan-5-ylsulfanyl}-2-methylpropionic acid]
activity of the (R) isomer relative to the (S) isomer [1]: more active than the (S) isomer
